Where two headings read alike, the source gives them in different places.
Tests used:
[1] = target: NDM-1 (Klebsiella pneumoniae, UniProt C7C422); assay: biochemical; type: biochemical; details: fluorescence assay with CCF2-FA substrate; read-out: NDM-1 IC50
[2] = target: IMP-1 (Serratia marcescens, UniProt P52699); assay: biochemical; type: biochemical; details: fluorescence assay with CCF2-FA substrate; read-out: IMP-1 IC50
[3] = target: VIM-1 (Pseudomonas aeruginosa (strain ATCC 15692 / DSM 22644 / CIP 104116 / JCM 14847 / LMG 12228 / 1C / PRS 101 / PAO1), UniProt A0A0F7KYQ8); assay: Enzyme activity: determination of IC50, fluorescence assay with CCF2-FA substrate (VIM-1); type: biochemical
[4] = system: Escherichia coli expressing NDM-1 (CLB30005); assay: Antibiotic potentiation activity: synergistic concentration (MITC95) with imipenem, OD600 growth; type: cell-based; details: concentration giving 95% inhibition of bacterial growth
Procedure, shortened: (§1)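 Test compound was combined with 4 μg/ml imipenem (or optionally 1 μg/ml), or with no antibiotic, against saline-suspended colonies diluted 1:100 in 1.1×CAMHB. Strains were E. coli NDM-1, S. marcescens IMP-1 and K. pneumoniae VIM-1. Plates were incubated 22–24 h at 35 °C before absorbance (OD600) readout.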

[5] = system: Klebsiella pneumoniae expressing VIM-1 (IHMA599644); assay: as above; type: cell-based; details: concentration giving 95% inhibition of bacterial growth
Procedure, shortened: as §1

[6] = system: Serratia marcescens expressing IMP-1 (CL5741); assay: as above; type: cell-based; details: concentration giving 95% inhibition of bacterial growth
Procedure, shortened: as §1

[7] = fluorescence assay with CCF2-FA substrate, read-out: VIM-1 IC50
[8] = VIM-1 IC50, fluorescence assay with CCF2-FA substrate

Chain of NDM-1 (C7C422 whole entry, looked up, species assumed): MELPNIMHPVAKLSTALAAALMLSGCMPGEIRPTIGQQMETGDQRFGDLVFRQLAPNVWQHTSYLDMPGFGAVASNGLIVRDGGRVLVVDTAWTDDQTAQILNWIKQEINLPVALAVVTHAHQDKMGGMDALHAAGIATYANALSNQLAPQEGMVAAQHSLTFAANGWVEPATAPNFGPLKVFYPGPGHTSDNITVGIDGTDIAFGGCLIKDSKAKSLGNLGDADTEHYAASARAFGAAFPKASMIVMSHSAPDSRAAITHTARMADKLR
Chain of IMP-1 (P52699 whole entry, looked up): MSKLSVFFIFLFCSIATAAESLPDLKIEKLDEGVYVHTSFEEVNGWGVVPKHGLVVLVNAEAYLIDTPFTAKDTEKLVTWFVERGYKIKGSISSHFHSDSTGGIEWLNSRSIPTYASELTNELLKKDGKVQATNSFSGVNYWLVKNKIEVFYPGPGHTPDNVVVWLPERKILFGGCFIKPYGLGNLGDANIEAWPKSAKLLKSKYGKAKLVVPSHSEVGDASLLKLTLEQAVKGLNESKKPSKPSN

Row | Compound | IC50 [1] | IC50 [2] | IC50 [3, 7] | Escherichia coli expressing NDM-1 (CLB 30005) MITC95 [4] | Klebsiella pneumoniae expressing VIM-1 (IHMA 599644) MITC95 [5] | Serratia marcescens expressing IMP-1 (CL5741) MITC95 [6] | IC50 [3, 8]
1 | CC1(c2ccc(-c3cccc(S(N)(=O)=O)c3-c3nn[nH]n3)cc2)SC(=O)NC1=O (stereo not drawn) [Example 75, 4′-(5-methyl-2,4-dioxo-1,3-thiazolidin-5-yl)-2-(2H-tetrazol-5-yl)biphenyl-3-sulfonamide] | 4.57 nM | 9.96 nM | 98.1 nM | 6.25 µM | >200 µM | 3.906 µM | –
2 | NS(=O)(=O)c1cccc(-c2ccc(CC3OC(=O)NC3=O)cc2)c1-c1nn[nH]n1 (stereo not drawn) [Example 76, 4′-[(2,4-dioxo-1,3-oxazolidin-5-yl)methyl]-2-(2H-tetrazol-5-yl)biphenyl-3-sulfonamide] | 17.1 nM | 42.7 nM | 244 nM | 6.25 µM | >200 µM | 6.25 µM | –
3 | COc1ccc(-c2cccc(S(N)(=O)=O)c2-c2nn[nH]n2)cn1 [Example 78, 3-(6-methoxypyridin-3-yl)-2-(2H-tetrazol-5-yl)benzenesulfonamide] | 19.3 nM | 202 nM | 147 nM | 0.7813 µM | 100 µM | 18.75 µM | –
4 | Cc1nc(F)ccc1-c1cccc(S(N)(=O)=O)c1-c1nn[nH]n1 [Example 79, 3-(6-fluoro-2-methylpyridin-3-yl)-2-(2H-tetrazol-5-yl)benzenesulfonamide] | 48.6 nM | 3970 nM | – | 1.563 µM | 25 µM | 150 µM | 60.2 nM
5 | NS(=O)(=O)c1cccc(-c2ccc(O)nc2)c1-c1nn[nH]n1 [Example 80, 3-(6-hydroxypyridin-3-yl)-2-(2H-tetrazol-5-yl)benzenesulfonamide] | 81.8 nM | 2380 nM | – | 0.3906 µM | 25 µM | 50 µM | 542 nM
6 | NC(=O)c1cccc(-c2cccc(S(N)(=O)=O)c2-c2nn[nH]n2)c1 [Example 81, 3′-sulfamoyl-2′-(2H-tetrazol-5-yl)biphenyl-3-carboxamide] | 34.6 nM | 571 nM | 255 nM | 0.9766 µM | 37.5 µM | 37.5 µM | –
7 | NS(=O)(=O)c1cccc(-c2cncc(F)c2)c1-c1nn[nH]n1 [Example 83, 3-(5-fluoropyridin-3-yl)-2-(2H-tetrazol-5-yl)benzenesulfonamide] | 5.97 nM | 520 nM | – | 0.3906 µM | 25 µM | 50 µM | 43.6 nM
8 | NS(=O)(=O)c1cccc(-c2ccc3[nH]c(=O)[nH]c3c2)c1-c1nn[nH]n1 [Example 84, 3-(2-oxo-2,3-dihydro-1H-benzimidazol-5-yl)-2-(2H-tetrazol-5-yl)benzenesulfonamide] | 3.08 nM | 708 nM | 23.2 nM | 0.7813 µM | 6.25 µM | 50 µM | –
9 | NS(=O)(=O)c1cccc(-c2ccc3c(c2)CCCO3)c1-c1nn[nH]n1 [Example 85, 3-(3,4-dihydro-2H-chromen-6-yl)-2-(2H-tetrazol-5-yl)benzenesulfonamide] | 1.81 nM | 94.6 nM | 28 nM | 2.344 µM | 150 µM | 37.5 µM | –
10 | CS(=O)(=O)Nc1cccc(-c2cccc(S(N)(=O)=O)c2-c2nn[nH]n2)c1 [Example 86, 3′-[(methylsulfonyl)amino]-2-(2H-tetrazol-5-yl)biphenyl-3-sulfonamide] | 11 nM | 67.4 nM | 1070 nM | 0.7813 µM | 200 µM | 3.125 µM | –
11 | CN(C)CCNC(=O)c1ccc(-c2cccc(S(N)(=O)=O)c2-c2nn[nH]n2)cc1 [Example 87, N-[2-(dimethylamino)ethyl]-3′-sulfamoyl-2′-(2H-tetrazol-5-yl)biphenyl-4-carboxamide] | 95.5 nM | 908 nM | 2090 nM | 3.906 µM | 200 µM | 18.75 µM | –
12 | CONC(=O)c1ccc(-c2cccc(S(N)(=O)=O)c2-c2nn[nH]n2)cc1 [Example 88, N-methoxy-3′-sulfamoyl-2′-(2H-tetrazol-5-yl)biphenyl-4-carboxamide] | 2.98 nM | 87.3 nM | 243 nM | 1.953 µM | 100 µM | 12.5 µM | –
13 | NS(=O)(=O)c1cccc(-c2ccc3cn[nH]c3c2)c1-c1nn[nH]n1 [Example 90, 3-(1H-indazol-6-yl)-2-(2H-tetrazol-5-yl)benzenesulfonamide] | 2.24 nM | 197 nM | 15.5 nM | 0.5859 µM | 12.5 µM | 25 µM | –
14 | COc1ncc(-c2cccc(S(N)(=O)=O)c2-c2nn[nH]n2)cn1 [Example 91, 3-(2-methoxypyrimidin-5-yl)-2-(2H-tetrazol-5-yl)benzenesulfonamide] | 27.5 nM | 830 nM | 180 nM | 0.7813 µM | 75 µM | 50 µM | –
15 | NS(=O)(=O)c1cccc(-c2cnc(N3CCOCC3)nc2)c1-c1nn[nH]n1 [Example 94, 3-(2-morpholin-4-ylpyrimidin-5-yl)-2-(2H-tetrazol-5-yl)benzenesulfonamide] | 6.32 nM | 164 nM | 234 nM | 2.344 µM | 100 µM | 12.5 µM | –
16 | NS(=O)(=O)c1cccc(-c2ccnn2Cc2ccccc2)c1-c1nn[nH]n1 [Example 95, 3-(1-benzyl-1H-pyrazol-5-yl)-2-(2H-tetrazol-5-yl)benzenesulfonamide] | 1.51 nM | 534 nM | – | 3.906 µM | >200 µM | 106.3 µM | 375 nM
17 | NS(=O)(=O)c1cccc(-c2csc3ccccc23)c1-c1nn[nH]n1 [Example 96, 3-(1-benzothiophen-3-yl)-2-(2H-tetrazol-5-yl)benzenesulfonamide] | 1.31 nM | 109 nM | 3.55 nM | 1.758 µM | 25 µM | 15.63 µM | –
18 | Cn1ccc(-c2cccc(S(N)(=O)=O)c2-c2nn[nH]n2)n1 [Example 97, 3-(1-methyl-1H-pyrazol-3-yl)-2-(2H-tetrazol-5-yl)benzenesulfonamide] | 71.1 nM | 1570 nM | 1620 nM | 0.5859 µM | 200 µM | 18.75 µM | –
19 | N#Cc1ccc2[nH]c(-c3cccc(S(N)(=O)=O)c3-c3nn[nH]n3)cc2c1 [Example 99, 3-(5-cyano-1H-indol-2-yl)-2-(2H-tetrazol-5-yl)benzenesulfonamide] | 6.98 nM | 208 nM | 104 nM | 9.375 µM | >200 µM | 28.13 µM | –
20 | NS(=O)(=O)c1cccc(-c2cnn(Cc3ccncc3)c2)c1-c1nn[nH]n1 [Example 100, 3-[1-(pyridin-4-ylmethyl)-1H-pyrazol-4-yl]-2-(2H-tetrazol-5-yl)benzenesulfonamide] | 29.6 nM | 146 nM | 940 nM | 7.031 µM | >200 µM | 14.06 µM | –
21 | NS(=O)(=O)c1cccc(-c2cnn(Cc3ccccn3)c2)c1-c1nn[nH]n1 [Example 101, 3-[1-(pyridin-2-ylmethyl)-1H-pyrazol-4-yl]-2-(2H-tetrazol-5-yl)benzenesulfonamide] | 40.9 nM | 517 nM | 111 nM | 3.906 µM | 125 µM | 14.06 µM | –
